Experimental data from patent publication US12482280B2, “Biological image transformation using machine-learning models” (Insitro, Inc., priority 2020, dated 2025).

Tested on: tissues with NASH
Test: Evaluation of drug treatment in NASH disease model using GAN-generated phase/fluorescence images
Assay type: cell-based
Conditions: NASH 2X + ACC inhibitor
Source text: FIG. 16A illustrates synthetic images generated by an exemplary GAN model to study the NASH disease, in accordance with some embodiments. In the depicted example, Hepg2 cells with NASH genetic background are illuminated using an optimal illumination pattern identified using techniques described herein, and a bright-field image is captured. The bright-field image is inputted into a GAN model, which outputs a generated phase image and a generated fluorescence/bodipy image in FIG. 16A. The GAN model used in FIG. 16A can be configured to include a trained classifier as described with reference to FIGS. 14A-B and 15. The classifier has two conditions: a healthy condition (e.g., no perturbations) and a diseased condition (e.g., inflammation cocktail plus fatty acid). […]
The synthetic images generated by the GAN model can also be used to evaluate the efficacy of a treatment. […] The images can be phase images or fluorescence images generated using the techniques described herein (e.g., from bright-field images). Each phase or fluorescence image can be generated based on multiple bright-field images and thus comprises richer information such as phase shift information. Accordingly, the generated phase or fluorescence images can allow for higher precision in downstream analyses, as described below. […]

## COc1ccccc1[C@H](Cn1c(=O)n(C(C)(C)C(=O)O)c(=O)c2c(C)c(-c3ncco3)sc21)OC1CCOCC1 [ACC inhibitor, firsocostate]
50 uM, treated tissues vs untreated diseased tissues, generated images
  probability of having the disease outputted by a classifier trained on generated images (distribution, FIG. 16C): lower probabilities of having the disease than generated images of diseased tissues
Generated images of treated vs diseased vs healthy tissues
  image clusters in an embedding space (UMAP, FIG. 16D): moves away from the cluster of generated diseased images and toward the cluster of generated healthy images
